Measured values: PubChem BioAssay (NCI)
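Each compound was tested at five concentrations against cells in 96-well plates for 48 hours. TGI denotes the concentration required for complete inhibition of growth.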

How the values were obtained:
Assay in all cases: growth of human tumour cells (NCI), 48 h
[1] = test system: RPMI-8226 leukemia
[2] = test system: A549 NSCLC
[3] = test system: SK-MEL-28 melanoma
[4] = test system: HT29 colon
[5] = test system: HL-60(TB) leukemia
[6] = test system: OVCAR-5 ovarian
[7] = test system: K-562 leukemia
[8] = test system: M14 melanoma
[9] = test system: NCI-H460 lung
[10] = test system: OVCAR-8 ovarian
[11] = test system: ACHN renal
[12] = test system: 786-0 renal
[13] = test system: NCI-H522 lung
[14] = test system: OVCAR-3 ovarian
[15] = test system: LOX IMVI melanoma
[16] = test system: SN12C renal
[17] = test system: SR leukemia
[18] = test system: TK-10 renal
[19] = test system: NCI/ADR-RES ovarian
[20] = test system: UACC-257 melanoma

## C=C(C)C1CCC2(C)CC1c1c(c(C)cc3c1[nH]c1ccccc13)O2 (stereo not drawn)
[1]
  TGI: > 25 µM
[2]
  TGI: > 25 µM
[3]
  TGI: > 25 µM
[4]
  TGI: > 25 µM
[5]
  TGI: > 25 µM
[6]
  TGI: > 25 µM
[7]
  TGI: > 25 µM
[8]
  TGI: > 25 µM
[9]
  TGI: > 25 µM
[10]
  TGI: > 25 µM
[11]
  TGI: > 25 µM
[12]
  TGI: > 25 µM
[13]
  TGI: > 25 µM
[14]
  TGI: > 25 µM
[15]
  TGI: > 25 µM
[16]
  TGI: > 25 µM
[17]
  TGI: > 25 µM

## CCOc1nnnc2nc[nH]c12
[1]
  TGI: > 100 µM
[2]
  TGI: > 100 µM
[3]
  TGI: > 100 µM
[4]
  TGI: > 100 µM
[5]
  TGI: > 100 µM
[6]
  TGI: > 100 µM
[8]
  TGI: > 100 µM
[9]
  TGI: > 100 µM
[10]
  TGI: > 100 µM
[12]
  TGI: > 100 µM
[13]
  TGI: > 100 µM
[18]
  TGI: > 100 µM
[14]
  TGI: > 100 µM
[15]
  TGI: > 100 µM
[19]
  TGI: > 100 µM
[16]
  TGI: > 100 µM
[20]
  TGI: > 100 µM

## CCOC(=O)NNC(=O)NCCCCNC(=O)NNC(=O)OCC
[1]
  TGI: > 100 µM
[2]
  TGI: > 100 µM
[3]
  TGI: > 100 µM
[4]
  TGI: > 100 µM
[5]
  TGI: > 100 µM
[6]
  TGI: > 100 µM
[7]
  TGI: > 100 µM
[8]
  TGI: > 100 µM
[9]
  TGI: > 100 µM
[10]
  TGI: > 100 µM
[11]
  TGI: > 100 µM
[12]
  TGI: > 100 µM
[13]
  TGI: > 100 µM
[18]
  TGI: > 100 µM
[14]
  TGI: > 100 µM
[15]
  TGI: > 100 µM
[19]
  TGI: > 100 µM
[16]
  TGI: > 100 µM
[20]
  TGI: > 100 µM

## CCCCC/C=C1\CCC(CN(C)C)C1=O (stereo not drawn)
[2]
  TGI: > 63.5 µM
[3]
  TGI: 23.9 µM
[4]
  TGI: 62.3 µM
[5]
  TGI: 30.3 µM
[6]
  TGI: 33.7 µM
[7]
  TGI: 28.2 µM
[8]
  TGI: 28.1 µM
[9]
  TGI: > 100 µM
[10]
  TGI: > 41.7 µM
[11]
  TGI: 27.3 µM
[12]
  TGI: 7.02 µM
[13]
  TGI: 13.4 µM
[18]
  TGI: > 40.1 µM
[14]
  TGI: 30.7 µM
[15]
  TGI: 20.6 µM
[16]
  TGI: 30.1 µM
[17]
  TGI: 21.6 µM
[20]
  TGI: 32.2 µM

## COc1ccc(OC)c(/C=C(/C#N)c2ccccc2)c1
[1]
  TGI: 60.6 µM
[2]
  TGI: > 100 µM
[3]
  TGI: > 100 µM
[4]
  TGI: > 100 µM
[5]
  TGI: 19.6 µM
[6]
  TGI: > 100 µM
[7]
  TGI: 13.8 µM
[8]
  TGI: > 100 µM
[9]
  TGI: > 100 µM
[10]
  TGI: > 100 µM
[11]
  TGI: > 100 µM
[12]
  TGI: > 100 µM
[13]
  TGI: 45.5 µM
[18]
  TGI: > 100 µM
[14]
  TGI: 88.2 µM
[15]
  TGI: > 100 µM
[16]
  TGI: > 100 µM

## C[N+](C)(C)CC1CCC/C1=N\OC(=O)c1ccccc1 (stereo not drawn)
[1]
  TGI: > 100 µM
[2]
  TGI: > 100 µM
[3]
  TGI: > 100 µM
[4]
  TGI: > 100 µM
[5]
  TGI: > 100 µM
[7]
  TGI: > 100 µM
[8]
  TGI: > 100 µM
[10]
  TGI: > 100 µM
[11]
  TGI: > 100 µM
[12]
  TGI: > 100 µM
[13]
  TGI: > 100 µM
[14]
  TGI: > 100 µM
[15]
  TGI: > 100 µM
[16]
  TGI: > 100 µM
[17]
  TGI: > 100 µM
[20]
  TGI: > 100 µM

## Cn1cnnc1Sc1c([N+](=O)[O-])ncn1C
[1]
  TGI: > 100 µM
[2]
  TGI: > 100 µM
[3]
  TGI: > 100 µM
[4]
  TGI: > 100 µM
[6]
  TGI: > 100 µM
[7]
  TGI: > 100 µM
[8]
  TGI: > 100 µM
[9]
  TGI: > 100 µM
[10]
  TGI: > 100 µM
[11]
  TGI: > 100 µM
[12]
  TGI: > 100 µM
[13]
  TGI: 25.6 µM
[18]
  TGI: > 100 µM
[14]
  TGI: > 100 µM
[15]
  TGI: > 100 µM
[16]
  TGI: > 100 µM
[17]
  TGI: > 100 µM
[20]
  TGI: > 100 µM

## CN(C)CCNC(=O)c1cccc2c(Nc3ccc(S(=O)(=O)N=C(N)N)cc3)c3ccccc3nc12
[2]
  TGI: 48.4 µM
[3]
  TGI: 71.2 µM
[4]
  TGI: > 100 µM
[5]
  TGI: 2.59 µM
[6]
  TGI: 90.4 µM
[7]
  TGI: 77.4 µM
[8]
  TGI: > 100 µM
[9]
  TGI: 18.7 µM
[10]
  TGI: 69.1 µM
[11]
  TGI: 61.1 µM
[12]
  TGI: 60 µM
[13]
  TGI: 17.3 µM
[18]
  TGI: > 100 µM
[15]
  TGI: 20.8 µM
[16]
  TGI: 59.5 µM
[17]
  TGI: > 100 µM

## CC(=O)OCC1OC(OC2CC3C(C)(C)C(O)CC[C@]3(C)C3CCC45CC4(CCC5[C@@H](C)CC(O)C(O)C(C)(C)O)[C@]23C)C(O)C(O)C1O (stereo partly drawn)
[1]
  TGI: > 10 µM
[2]
  TGI: > 10 µM
[3]
  TGI: > 10 µM
[4]
  TGI: > 10 µM
[5]
  TGI: > 10 µM
[6]
  TGI: > 10 µM
[7]
  TGI: > 10 µM
[8]
  TGI: > 10 µM
[9]
  TGI: > 10 µM
[10]
  TGI: > 10 µM
[11]
  TGI: > 10 µM
[12]
  TGI: > 10 µM
[13]
  TGI: > 10 µM
[18]
  TGI: > 10 µM
[14]
  TGI: > 10 µM
[15]
  TGI: > 10 µM
[19]
  TGI: > 10 µM
[16]
  TGI: > 10 µM
[20]
  TGI: > 10 µM

## CC1(C)OC[C@@H]([C@H](O)C2C=CC(=O)S2)O1 (stereo partly drawn)
[1]
  TGI: 53.4 µM
[2]
  TGI: > 100 µM
[4]
  TGI: 55.5 µM
[5]
  TGI: > 100 µM
[6]
  TGI: > 100 µM
[7]
  TGI: > 100 µM
[8]
  TGI: > 100 µM
[9]
  TGI: > 100 µM
[10]
  TGI: 56.4 µM
[11]
  TGI: 49.2 µM
[12]
  TGI: 59.3 µM
[18]
  TGI: > 100 µM
[14]
  TGI: > 100 µM
[15]
  TGI: 31.7 µM
[19]
  TGI: 83.6 µM
[16]
  TGI: > 100 µM
[20]
  TGI: > 100 µM

## O=C1C=C(NCCOCCO)C(=O)c2c(O)ccc(O)c21
[1]
  TGI: 78 µM
[2]
  TGI: 73.6 µM
[3]
  TGI: > 100 µM
[4]
  TGI: 42.2 µM
[5]
  TGI: 40.4 µM
[6]
  TGI: > 100 µM
[7]
  TGI: 87.4 µM
[8]
  TGI: 66.9 µM
[9]
  TGI: > 100 µM
[10]
  TGI: 86.5 µM
[11]
  TGI: 83 µM
[12]
  TGI: > 100 µM
[13]
  TGI: 47.1 µM
[18]
  TGI: > 100 µM
[14]
  TGI: 65.4 µM
[15]
  TGI: 30 µM
[19]
  TGI: 65.7 µM
[20]
  TGI: 38.4 µM

## O=[N+]([O-])c1ccc(-c2cnc3ccccn23)cc1
[1]
  TGI: > 100 µM
[2]
  TGI: > 100 µM
[3]
  TGI: > 100 µM
[4]
  TGI: > 100 µM
[5]
  TGI: > 100 µM
[6]
  TGI: > 100 µM
[7]
  TGI: > 100 µM
[8]
  TGI: > 100 µM
[9]
  TGI: > 100 µM
[10]
  TGI: > 100 µM
[11]
  TGI: > 100 µM
[12]
  TGI: > 100 µM
[13]
  TGI: > 100 µM
[14]
  TGI: > 100 µM
[15]
  TGI: > 100 µM
[16]
  TGI: > 100 µM
[17]
  TGI: > 100 µM
[20]
  TGI: > 100 µM

## Cc1nc2ccc(F)cc2c2c1CCN2c1ccc(Cl)cc1
[2]
  TGI: > 100 µM
[3]
  TGI: 28 µM
[4]
  TGI: 22.4 µM
[5]
  TGI: 17.7 µM
[6]
  TGI: > 100 µM
[7]
  TGI: 13.4 µM
[8]
  TGI: 21.4 µM
[9]
  TGI: 47.7 µM
[10]
  TGI: 34.2 µM
[11]
  TGI: 96.2 µM
[12]
  TGI: 34.9 µM
[13]
  TGI: 30.5 µM
[18]
  TGI: 41.7 µM
[14]
  TGI: > 100 µM
[15]
  TGI: 33 µM
[19]
  TGI: 19.8 µM
[16]
  TGI: 97.6 µM
[20]
  TGI: 13.8 µM
